Experimental data taken from ChEMBL document CHEMBL1201862, “PubChem BioAssay data set” (2004).
Active and inactive are the calls of the source.

Key:
[1] = decrease of insulin promoter-GFP reporter – imaging, high-content screening, mouse beta cells (AID 1628); assay type: functional; conditions: MIN6
[2] = MIN6 cell viability loss – mouse insulinoma, cytotoxicity control, dose response (AID 2122); assay type: functional;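 also: confirmatory high-throughput counterscreen run to flag cytotoxic compounds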
[3] = target: Dual specificity tyrosine-phosphorylation-regulated kinase 1A (Rattus norvegicus, UniProt Q63470); assay type: biochemical, Homo sapiens
[4] = target: T1, Mannose-6-phosphate isomerase (Homo sapiens, UniProt P34949); experiment: phosphomannose isomerase inhibition – biochemical, fluorescence intensity, confirmation (AID 1535)
T1 sequence (P34949 whole entry): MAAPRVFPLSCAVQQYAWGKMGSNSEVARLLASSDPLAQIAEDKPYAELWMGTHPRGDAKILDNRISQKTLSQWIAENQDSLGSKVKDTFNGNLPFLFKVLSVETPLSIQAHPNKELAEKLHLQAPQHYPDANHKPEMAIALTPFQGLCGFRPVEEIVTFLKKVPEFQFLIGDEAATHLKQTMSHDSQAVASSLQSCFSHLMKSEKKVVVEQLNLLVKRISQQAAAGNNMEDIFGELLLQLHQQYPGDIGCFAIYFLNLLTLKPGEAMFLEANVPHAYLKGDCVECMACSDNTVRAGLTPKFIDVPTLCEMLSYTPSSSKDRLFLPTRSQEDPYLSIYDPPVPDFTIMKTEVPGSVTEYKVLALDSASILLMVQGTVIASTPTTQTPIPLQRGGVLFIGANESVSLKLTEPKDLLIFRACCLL

Phosphomannomutase 2 = Phosphomannomutase 2 (Homo sapiens, UniProt O15305); experiment: Counter screen SAR assay for PMM2 inhibitors via a fluorescence intensity assay. [Related pubchem assays (depositor defined):AID1545, AID1574]
Sequence of Phosphomannomutase 2 (O15305 whole entry): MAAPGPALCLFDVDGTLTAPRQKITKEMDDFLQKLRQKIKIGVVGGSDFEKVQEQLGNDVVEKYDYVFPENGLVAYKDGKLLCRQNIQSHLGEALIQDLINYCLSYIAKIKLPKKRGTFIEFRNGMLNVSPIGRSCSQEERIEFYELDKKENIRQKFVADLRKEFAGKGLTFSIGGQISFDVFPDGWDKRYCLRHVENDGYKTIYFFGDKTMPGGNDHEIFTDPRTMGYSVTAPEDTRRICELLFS

Cytochrome P450 2C19 = Cytochrome P450 2C19 (Homo sapiens, UniProt P33261); experiment: Cytochrome panel assay with activity outcomes. Panel member name: p450-cyp2c19 Compounds with AC50 equal or less than 10 uM are considered active; assay type: functional
Sequence of Cytochrome P450 2C19 (P33261 whole entry): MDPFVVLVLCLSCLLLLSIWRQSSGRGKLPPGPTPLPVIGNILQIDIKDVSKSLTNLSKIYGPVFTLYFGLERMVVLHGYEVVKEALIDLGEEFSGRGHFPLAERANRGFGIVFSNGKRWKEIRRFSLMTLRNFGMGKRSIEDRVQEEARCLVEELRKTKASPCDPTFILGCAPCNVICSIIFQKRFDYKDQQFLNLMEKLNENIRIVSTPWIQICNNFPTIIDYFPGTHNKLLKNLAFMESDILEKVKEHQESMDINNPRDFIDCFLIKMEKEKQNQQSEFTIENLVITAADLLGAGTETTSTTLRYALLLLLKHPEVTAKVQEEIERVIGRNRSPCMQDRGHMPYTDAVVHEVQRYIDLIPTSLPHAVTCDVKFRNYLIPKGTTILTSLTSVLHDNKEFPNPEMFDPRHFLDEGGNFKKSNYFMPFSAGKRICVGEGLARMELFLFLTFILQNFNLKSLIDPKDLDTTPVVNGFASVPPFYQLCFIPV

Cytochrome P450 3A4 = Cytochrome P450 3A4 (Homo sapiens, UniProt P08684);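 also: CYP3A4 tested as one member of a cytochrome P450 panel screen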
Sequence of Cytochrome P450 3A4 (P08684 whole entry): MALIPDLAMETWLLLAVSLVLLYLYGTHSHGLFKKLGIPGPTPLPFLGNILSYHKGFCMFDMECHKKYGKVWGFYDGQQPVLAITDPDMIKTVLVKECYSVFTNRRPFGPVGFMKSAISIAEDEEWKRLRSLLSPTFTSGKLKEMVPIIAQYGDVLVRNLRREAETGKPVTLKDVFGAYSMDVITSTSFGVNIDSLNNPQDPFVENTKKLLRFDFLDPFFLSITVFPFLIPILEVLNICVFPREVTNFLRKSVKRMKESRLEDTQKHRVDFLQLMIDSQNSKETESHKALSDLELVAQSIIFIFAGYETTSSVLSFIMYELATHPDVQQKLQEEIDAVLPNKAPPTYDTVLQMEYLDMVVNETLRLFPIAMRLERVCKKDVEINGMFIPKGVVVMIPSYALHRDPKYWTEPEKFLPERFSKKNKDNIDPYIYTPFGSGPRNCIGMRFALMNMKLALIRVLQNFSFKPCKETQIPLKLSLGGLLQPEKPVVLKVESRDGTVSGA

Cytochrome P450 1A2 = target: T2, Cytochrome P450 1A2 (Homo sapiens, UniProt P05177);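 also: PubChem cytochrome P450 panel assay, CYP1A2 panel member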
T2 sequence (P05177 whole entry): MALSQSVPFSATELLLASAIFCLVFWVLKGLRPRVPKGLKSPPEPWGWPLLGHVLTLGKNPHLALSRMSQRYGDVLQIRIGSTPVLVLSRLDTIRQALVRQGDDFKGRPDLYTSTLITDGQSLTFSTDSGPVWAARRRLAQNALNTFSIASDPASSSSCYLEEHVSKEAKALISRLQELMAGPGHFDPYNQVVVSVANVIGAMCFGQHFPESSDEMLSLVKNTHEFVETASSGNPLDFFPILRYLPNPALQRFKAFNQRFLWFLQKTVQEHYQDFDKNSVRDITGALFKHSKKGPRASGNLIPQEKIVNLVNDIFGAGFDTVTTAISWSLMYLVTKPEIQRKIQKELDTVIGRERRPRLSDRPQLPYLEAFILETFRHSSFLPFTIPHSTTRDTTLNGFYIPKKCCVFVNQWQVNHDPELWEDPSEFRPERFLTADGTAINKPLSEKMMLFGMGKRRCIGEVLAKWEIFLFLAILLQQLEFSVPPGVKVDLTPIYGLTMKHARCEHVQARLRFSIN

Phospholipase A2 = Phospholipase A2 (Homo sapiens, UniProt P04054); assay type: functional;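 also: confirmatory dose-response counterscreen on phospholipase A2, testing hits that came from an ultra-high-throughput screen for ATG4B inhibitors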
Sequence of Phospholipase A2 (P04054 whole entry): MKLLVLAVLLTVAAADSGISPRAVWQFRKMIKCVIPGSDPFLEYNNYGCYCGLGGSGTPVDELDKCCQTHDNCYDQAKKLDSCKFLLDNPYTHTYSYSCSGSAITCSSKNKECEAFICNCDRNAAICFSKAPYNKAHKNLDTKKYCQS

Cysteine protease ATG4B = Cysteine protease ATG4B (Homo sapiens, UniProt Q9Y4P1); assay type: functional;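 also: Fluorescence-based dose-response confirmation assay measuring inhibition of ATG4B activity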
Sequence of Cysteine protease ATG4B (Q9Y4P1 whole entry, the tested form may be a part): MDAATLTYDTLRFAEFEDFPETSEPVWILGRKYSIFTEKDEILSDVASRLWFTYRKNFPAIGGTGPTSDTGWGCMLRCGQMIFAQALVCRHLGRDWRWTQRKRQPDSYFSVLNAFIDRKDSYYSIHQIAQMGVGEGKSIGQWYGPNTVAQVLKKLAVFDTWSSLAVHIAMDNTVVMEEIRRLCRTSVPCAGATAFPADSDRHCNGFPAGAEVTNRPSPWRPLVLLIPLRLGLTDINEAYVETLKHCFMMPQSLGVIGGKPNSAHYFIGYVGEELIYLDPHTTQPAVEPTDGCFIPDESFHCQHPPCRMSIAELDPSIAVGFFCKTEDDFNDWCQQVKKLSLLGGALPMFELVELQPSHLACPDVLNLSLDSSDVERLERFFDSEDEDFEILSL

[5] = target: T3, Polyadenylate-binding protein 1 (Homo sapiens, UniProt P11940); experiment: MLLE domain peptide-binding blockers, IC50 – biochemical, fluorescence polarization, FITC-PAM2 peptide, dose response (AID 602259); assay type: functional; conditions: read-out: IC50_Mean
T3 sequence (P11940 whole entry, the tested form may be a part): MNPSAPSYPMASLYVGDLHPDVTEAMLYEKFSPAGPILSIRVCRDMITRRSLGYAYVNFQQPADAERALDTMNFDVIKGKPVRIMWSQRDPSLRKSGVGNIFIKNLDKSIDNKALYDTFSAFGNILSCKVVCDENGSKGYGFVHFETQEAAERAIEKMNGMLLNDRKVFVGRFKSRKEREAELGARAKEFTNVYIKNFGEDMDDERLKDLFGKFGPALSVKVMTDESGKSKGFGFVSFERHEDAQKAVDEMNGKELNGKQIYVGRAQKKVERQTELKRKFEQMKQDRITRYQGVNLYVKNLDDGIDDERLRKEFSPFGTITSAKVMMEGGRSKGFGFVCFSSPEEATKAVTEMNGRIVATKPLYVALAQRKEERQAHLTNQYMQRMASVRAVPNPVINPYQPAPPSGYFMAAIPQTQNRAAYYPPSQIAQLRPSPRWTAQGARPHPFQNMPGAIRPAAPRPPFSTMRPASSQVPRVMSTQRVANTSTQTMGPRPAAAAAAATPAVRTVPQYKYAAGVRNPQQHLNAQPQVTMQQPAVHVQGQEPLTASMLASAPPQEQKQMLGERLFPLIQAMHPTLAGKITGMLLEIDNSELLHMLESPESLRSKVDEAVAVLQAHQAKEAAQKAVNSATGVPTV

[6] = target: T3, Polyadenylate-binding protein 1; experiment: MLLE binding blockers, Cy5 peptide tracer – biochemical, fluorescence polarization, Cy5-PAM2 peptide, secondary, miRNA deadenylation inhibitor project, dose response (AID 602260); assay type: functional; conditions: read-out: IC50_Mean
[7] = target: T4, Long-chain-fatty-acid--AMP ligase FadD28 (Mycobacterium tuberculosis, UniProt P9WQ59); experiment: Fluorescence polarization aasay to screen for inhibitors that compete for the binding of FadD28 to a bisubstrate Measured in Biochemical System Using Plate Reader - 2147-01_Inhibitor_Dose_CherryPick_Activity.; assay type: functional, Mycobacterium tuberculosis H37Rv
T4 sequence (P9WQ59 whole entry): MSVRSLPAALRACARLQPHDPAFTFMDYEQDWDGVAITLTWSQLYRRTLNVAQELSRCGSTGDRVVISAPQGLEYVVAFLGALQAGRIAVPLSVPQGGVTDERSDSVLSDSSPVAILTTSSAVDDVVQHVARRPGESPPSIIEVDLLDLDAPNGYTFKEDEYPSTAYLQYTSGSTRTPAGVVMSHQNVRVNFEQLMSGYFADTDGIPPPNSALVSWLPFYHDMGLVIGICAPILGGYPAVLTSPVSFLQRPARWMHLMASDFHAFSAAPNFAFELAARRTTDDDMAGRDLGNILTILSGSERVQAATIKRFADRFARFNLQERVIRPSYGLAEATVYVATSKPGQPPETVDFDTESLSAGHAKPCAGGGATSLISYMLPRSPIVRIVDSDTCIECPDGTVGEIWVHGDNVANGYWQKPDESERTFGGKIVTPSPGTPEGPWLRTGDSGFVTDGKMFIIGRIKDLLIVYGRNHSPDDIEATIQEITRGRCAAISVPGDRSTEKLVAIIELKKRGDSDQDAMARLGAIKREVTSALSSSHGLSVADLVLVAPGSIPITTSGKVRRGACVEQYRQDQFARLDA

Hexokinase HKDC1 = target: T5, Hexokinase HKDC1 (Homo sapiens, UniProt Q2TB90); experiment: inhibition of HKDC1 glucose phosphorylation – biochemical, W721R variant, dose response (AID 504729); assay type: functional
T5 sequence (Q2TB90 whole entry): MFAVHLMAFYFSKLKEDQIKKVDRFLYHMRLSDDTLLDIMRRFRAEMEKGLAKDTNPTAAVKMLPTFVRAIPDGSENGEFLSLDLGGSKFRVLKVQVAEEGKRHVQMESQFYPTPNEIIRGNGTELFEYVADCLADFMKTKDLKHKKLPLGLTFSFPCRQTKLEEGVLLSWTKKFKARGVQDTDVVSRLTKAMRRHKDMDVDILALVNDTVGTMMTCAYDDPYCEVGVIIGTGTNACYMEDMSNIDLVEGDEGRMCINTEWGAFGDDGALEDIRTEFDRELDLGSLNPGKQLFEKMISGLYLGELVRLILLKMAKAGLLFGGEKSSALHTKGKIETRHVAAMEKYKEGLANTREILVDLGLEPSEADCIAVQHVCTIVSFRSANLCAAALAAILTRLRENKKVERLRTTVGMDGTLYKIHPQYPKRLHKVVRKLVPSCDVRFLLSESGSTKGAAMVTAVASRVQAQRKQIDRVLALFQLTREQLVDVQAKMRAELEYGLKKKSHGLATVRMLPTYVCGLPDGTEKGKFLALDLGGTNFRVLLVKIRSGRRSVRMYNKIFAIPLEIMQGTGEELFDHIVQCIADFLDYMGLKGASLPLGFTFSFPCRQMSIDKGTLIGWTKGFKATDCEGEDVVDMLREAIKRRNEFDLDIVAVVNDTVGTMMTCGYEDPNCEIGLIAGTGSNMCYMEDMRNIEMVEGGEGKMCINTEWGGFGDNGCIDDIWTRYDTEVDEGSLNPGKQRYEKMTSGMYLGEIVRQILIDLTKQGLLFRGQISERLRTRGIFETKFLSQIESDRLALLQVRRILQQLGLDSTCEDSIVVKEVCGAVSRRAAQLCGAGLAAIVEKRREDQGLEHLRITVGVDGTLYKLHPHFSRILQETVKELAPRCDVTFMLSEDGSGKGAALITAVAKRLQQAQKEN

Genome polyprotein = Genome polyprotein (dengue virus type 2, UniProt P29990); experiment: flavivirus cap methylation enzyme inhibition – biochemical, confirmation dose response, primary screen (AID 588689); assay type: functional
Sequence of Genome polyprotein (P29990 2492-3391 limits assumed): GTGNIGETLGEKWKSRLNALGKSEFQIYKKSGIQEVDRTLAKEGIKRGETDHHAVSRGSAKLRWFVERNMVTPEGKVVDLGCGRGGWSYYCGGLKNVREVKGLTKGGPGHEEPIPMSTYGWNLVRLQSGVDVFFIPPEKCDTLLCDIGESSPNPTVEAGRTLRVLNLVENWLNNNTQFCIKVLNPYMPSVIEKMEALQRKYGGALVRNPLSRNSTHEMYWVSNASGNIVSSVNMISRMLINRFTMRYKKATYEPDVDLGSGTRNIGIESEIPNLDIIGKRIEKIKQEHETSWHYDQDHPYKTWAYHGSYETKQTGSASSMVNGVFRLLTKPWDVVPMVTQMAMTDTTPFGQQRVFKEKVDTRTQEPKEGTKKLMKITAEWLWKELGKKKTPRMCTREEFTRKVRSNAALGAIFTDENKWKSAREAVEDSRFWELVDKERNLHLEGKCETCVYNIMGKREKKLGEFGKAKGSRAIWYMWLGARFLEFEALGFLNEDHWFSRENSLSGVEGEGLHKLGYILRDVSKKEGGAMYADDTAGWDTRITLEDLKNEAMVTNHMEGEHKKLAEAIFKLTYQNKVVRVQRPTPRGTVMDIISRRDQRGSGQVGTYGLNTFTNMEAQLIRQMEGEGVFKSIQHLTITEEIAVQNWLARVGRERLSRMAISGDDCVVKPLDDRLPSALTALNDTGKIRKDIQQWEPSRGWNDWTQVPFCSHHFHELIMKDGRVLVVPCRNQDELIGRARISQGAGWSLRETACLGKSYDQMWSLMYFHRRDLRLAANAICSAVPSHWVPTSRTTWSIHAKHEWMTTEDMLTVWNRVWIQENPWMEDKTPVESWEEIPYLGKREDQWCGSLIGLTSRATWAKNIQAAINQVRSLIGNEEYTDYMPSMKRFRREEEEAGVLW

[8] = target: Glucose-6-phosphate 1-dehydrogenase (Homo sapiens, UniProt P11413); experiment: inhibition of Homo sapiens G6PD, dose series – biochemical, fluorescence, selectivity assay for P. falciparum G6PD inhibitor project, dose response (AID 504792); assay type: functional
Sequence of Glucose-6-phosphate 1-dehydrogenase (P11413 whole entry): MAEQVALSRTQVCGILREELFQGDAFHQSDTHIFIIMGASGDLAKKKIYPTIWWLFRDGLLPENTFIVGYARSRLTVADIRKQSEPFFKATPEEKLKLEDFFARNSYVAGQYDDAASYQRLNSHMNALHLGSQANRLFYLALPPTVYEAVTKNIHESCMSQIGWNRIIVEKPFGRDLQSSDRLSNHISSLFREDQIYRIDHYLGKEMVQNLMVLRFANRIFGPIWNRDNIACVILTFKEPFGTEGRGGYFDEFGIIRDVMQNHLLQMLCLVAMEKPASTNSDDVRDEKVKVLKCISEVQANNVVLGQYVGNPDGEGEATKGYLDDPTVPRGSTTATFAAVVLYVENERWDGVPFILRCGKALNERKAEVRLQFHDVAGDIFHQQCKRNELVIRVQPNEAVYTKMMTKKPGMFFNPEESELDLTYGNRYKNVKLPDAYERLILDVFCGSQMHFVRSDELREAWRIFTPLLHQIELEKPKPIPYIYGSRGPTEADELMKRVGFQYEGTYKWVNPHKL

[9] = target: T1, Mannose-6-phosphate isomerase; experiment: MPI inhibition at elevated mannose 6-phosphate – biochemical, fluorescence intensity, high mannose 6-phosphate, primary screen (AID 1220)
[10] = target: Voltage-gated inwardly rectifying potassium channel KCNH2 (Homo sapiens, UniProt Q12809); conditions: Potency;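 also: confirmatory quantitative high-throughput screen measuring inhibition of hERG channel activity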
Sequence of Voltage-gated inwardly rectifying potassium channel KCNH2 (Q12809 whole entry): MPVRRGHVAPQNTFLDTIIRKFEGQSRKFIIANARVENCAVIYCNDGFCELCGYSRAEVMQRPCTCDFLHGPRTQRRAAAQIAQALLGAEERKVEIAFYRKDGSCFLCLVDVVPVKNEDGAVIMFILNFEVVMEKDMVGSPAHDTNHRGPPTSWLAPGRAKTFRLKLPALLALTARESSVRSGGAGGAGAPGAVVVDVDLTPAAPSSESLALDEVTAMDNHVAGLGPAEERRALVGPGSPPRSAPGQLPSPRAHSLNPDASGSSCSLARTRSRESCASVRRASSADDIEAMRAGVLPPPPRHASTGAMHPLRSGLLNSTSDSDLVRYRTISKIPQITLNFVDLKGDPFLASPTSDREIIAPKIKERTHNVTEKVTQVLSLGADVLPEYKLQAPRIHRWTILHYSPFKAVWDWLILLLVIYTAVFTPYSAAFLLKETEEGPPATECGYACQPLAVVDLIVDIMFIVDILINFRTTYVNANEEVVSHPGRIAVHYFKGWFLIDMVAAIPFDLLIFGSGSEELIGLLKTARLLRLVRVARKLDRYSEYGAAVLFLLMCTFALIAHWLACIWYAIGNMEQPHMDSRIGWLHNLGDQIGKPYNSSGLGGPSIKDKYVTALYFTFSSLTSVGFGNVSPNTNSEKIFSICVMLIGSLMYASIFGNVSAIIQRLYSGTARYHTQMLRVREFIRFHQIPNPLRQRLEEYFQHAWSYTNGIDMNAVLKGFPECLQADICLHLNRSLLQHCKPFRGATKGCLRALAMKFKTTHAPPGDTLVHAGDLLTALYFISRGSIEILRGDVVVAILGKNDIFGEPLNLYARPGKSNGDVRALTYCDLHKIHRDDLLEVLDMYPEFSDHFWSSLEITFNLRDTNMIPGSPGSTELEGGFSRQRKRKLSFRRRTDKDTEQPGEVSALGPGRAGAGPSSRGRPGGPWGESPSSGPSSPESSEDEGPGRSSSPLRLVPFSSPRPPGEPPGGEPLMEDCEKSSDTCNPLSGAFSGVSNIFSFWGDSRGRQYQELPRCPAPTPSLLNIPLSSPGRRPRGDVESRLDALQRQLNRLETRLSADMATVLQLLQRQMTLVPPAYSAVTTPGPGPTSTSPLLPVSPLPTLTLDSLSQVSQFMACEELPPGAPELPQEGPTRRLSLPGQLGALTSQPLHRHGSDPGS

[11] = blockers of CRF-binding protein–CRF-R2 complex – cell-based, uHTS hits, 384-well, dose response (AID 651639); assay type: functional, Homo sapiens; conditions: read-out: IC50_Mean
[12] = target: T6, Corticotropin-releasing factor receptor 2/Corticotropin-releasing factor-binding protein (Homo sapiens, UniProt P24387+Q13324); experiment: Dose Response confirmation of uHTS hits for small molecule antagonists of the CRF-binding protein and CRF-R2 receptor complex.; assay type: functional; conditions: read-out: IC50_Mean
T6 sequence (Q13324 whole entry): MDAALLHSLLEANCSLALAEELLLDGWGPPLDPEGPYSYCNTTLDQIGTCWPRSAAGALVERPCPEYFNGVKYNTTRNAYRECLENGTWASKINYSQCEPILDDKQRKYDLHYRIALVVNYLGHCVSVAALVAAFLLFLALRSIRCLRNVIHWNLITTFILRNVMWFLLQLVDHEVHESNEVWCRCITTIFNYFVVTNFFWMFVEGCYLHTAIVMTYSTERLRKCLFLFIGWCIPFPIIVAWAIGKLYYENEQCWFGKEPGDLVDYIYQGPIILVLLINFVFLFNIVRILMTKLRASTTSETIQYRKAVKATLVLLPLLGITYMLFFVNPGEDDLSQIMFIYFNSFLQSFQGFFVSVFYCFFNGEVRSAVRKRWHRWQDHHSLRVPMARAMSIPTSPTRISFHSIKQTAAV
T6 sequence (P24387 whole entry): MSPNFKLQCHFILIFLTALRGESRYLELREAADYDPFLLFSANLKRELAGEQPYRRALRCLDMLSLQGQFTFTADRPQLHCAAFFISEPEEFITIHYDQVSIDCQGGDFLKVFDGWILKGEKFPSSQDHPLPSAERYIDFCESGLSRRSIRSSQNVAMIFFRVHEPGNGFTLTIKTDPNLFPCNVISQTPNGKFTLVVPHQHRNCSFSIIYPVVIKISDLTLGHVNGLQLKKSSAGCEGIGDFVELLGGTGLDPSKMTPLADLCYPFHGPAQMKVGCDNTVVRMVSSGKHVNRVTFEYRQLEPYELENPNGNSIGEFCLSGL

[13] = target: T6, Corticotropin-releasing factor receptor 2/Corticotropin-releasing factor-binding protein; experiment: activators of CRF receptor 2 with binding protein – uHTS hits, confirmation (AID 602473); assay type: functional; conditions: read-out: EC50_Mean

Question: For `COc1ccc(OC)c(-c2csc(NC(=O)c3ccc(OCC4CCCO4)cc3)n2)c1` (centres undefined), which IC50 [1] is on record?
Answer: 2.4 µM (active)

Question: And the IC50 [2]?
Answer: 2.19 µM (active)

Question: Which AC50 [3] does the source give for `COc1ccc2c3c([nH]c2c1)C(C)N(CCC(=O)NN)CC3` (centres undefined) here?
Answer: 1.45 µM (active)

Question: For `Clc1ccc(/N=c2\ssnc2Cl)cc1Cl`, which IC50 [4] is on record?
Answer: 16.9 µM (active)

Question: What about the IC50 (Phosphomannomutase 2) of the same compound?
Answer: 88.6 µM (active)

Question: With `Cc1cc(-n2sc3ccccc3c2=O)c2ccccc2n1` as the compound, how does the IC50 [4] read?
Answer: > 50 µM (inactive)

Question: What about the IC50 (Phosphomannomutase 2) of the same compound?
Answer: > 100 µM (inactive)

Question: Which AC50 (Cytochrome P450 2C19) does the source give for `c1cncc(-c2cccnc2)c1` here?
Answer: inconclusive

Question: What about the AC50 (Cytochrome P450 3A4) of the same compound?
Answer: inconclusive

Question: And the AC50 (Cytochrome P450 1A2)?
Answer: 15.8 µM (inconclusive)

Question: For `O=c1c2ccccc2nc(/C=C/c2ccc(O)cc2)n1CCc1ccccc1`, which IC50 (Phospholipase A2) is on record?
Answer: 12.2 µM (active)

Question: And the IC50 (Cysteine protease ATG4B)?
Answer: 17.2 µM (active)

Question: What does the source list for `Cc1ccc(-n2c(SCC(=O)N/N=C/c3c(C)nn(-c4ccccc4)c3C)nc3ccccc3c2=O)cc1`?
Answer: IC50 [5]: > 66 µM (inactive); IC50 [6]: > 66 µM (inactive); IC50 (Phospholipase A2): 1.86 µM (active); IC50 (Cysteine protease ATG4B): 14.2 µM (active)

Question: With `COc1ccccc1C(=O)N1CCN(c2ccccn2)CC1` as the compound, how does the AC50 (Cytochrome P450 3A4) read?
Answer: inconclusive

Question: What does the source list for `Nc1ccc(S(=O)(=O)c2cc(O)c3ccccc3c2O)cc1`?
Answer: AC50 [7]: > 100 µM (inactive); IC50 (Hexokinase HKDC1): 18.1 µM (active); IC50 (Genome polyprotein): 5.47 µM (active); IC50 [8]: > 80 µM (inactive)

Question: What does the source list for `COc1ccc(-n2c(=S)[nH]c3c(sc(=S)n3-c3ccccc3)c2=O)c(OC)c1`?
Answer: IC50 [8]: > 80 µM (inactive); IC50 [9]: 37.6 µM (active)

Question: For `CCc1ccc(C(c2ccc(CC)cc2)C(Cl)Cl)cc1`, which AC50 [10] is on record?
Answer: 22.4 µM (inconclusive)

Question: For `c1ccc2c(c1)OCCOCCOCCOCCOCCOc1ccccc1OCCOCCOCCO2`, which IC50 [11] is on record?
Answer: 10.4 µM (active)

Question: And the IC50 [12]?
Answer: 2.76 µM (active)

Question: What about the IC50 [1] of the same compound?
Answer: 2.89 µM (active)

Question: What about the EC50 [13] of the same compound?
Answer: 12.5 µM (active)

Question: And the IC50 [2]?
Answer: 5.48 µM (active)
